Results reported in patent US12297453B2, “Generation of norepinephrine neurons from human stem cells” (Wisconsin Alumni Research Foundation, priority 2020, dated 2025).

Columns and labels:
[1] = test system: hESCs (H9 line); assay: Patterning of hESCs to hindbrain R1 neuroepithelial cells with a CHIR99021 dose series (RT-qPCR, flow cytometry, immunocytochemistry); assay type: cell-based, human
Method: (§1) On day 5, change the medium without SB431542. […] Cells were feed daily.
(§2) gRNA was designed according to Benchling. Donor plasmid was generated by NEBuilder® HiFi DNA Assembly Master Mix (NEB, E2621S). Briefly, hPSCs were digested by TrypLE Express. Gene Pulser Xcell (Bio-Rad) was used for CRISPR/Cas9 delivery. Two-million cells were electroporated with 15 μg of sgRNA plasmid (pLenti-CRISPR) with 30 μg donor plasmid. Cells were plated at ˜150,000 cells/well of 6-well plate. Starting 24 hours after electroporation, 0.5 μg/ml puromycin were added to the culture medium. After 3 days of puromycin selection, hPSCs were switched to their normal culture medium and fed every other day until approximately 1-2 weeks after electroporation when distinct colonies were established. • Cell transplantation: Small aggregates of NE neural progenitors (day 10-day 12) were collected and suspended in artificial cerebral spinal fluid (aCSF) containing Rock inhibitor (0.5 μM), at a concentration of 100,000 cells/μl. 1 μl of cells were slowly injected into the left cortex (AP=+0.0 mm, ML=+1.8 mm, DV=−1.7 mm, from skull) of adult SCID mice (8-12 weeks) that were anesthetized with 1%-2% isoflurane mixed in oxygen. • Immunocytochemistry and flow cytometry: Immunocytochemistry was performed as described previously. See Huang et al., 2016, Sci Rep, 6:32600, doi:10.1038/srep32600. In brief, cells on coverslips were fixed in 4% neutral-buffered paraformaldehyde (PFA) for 10 minutes (min) at room temperature. Following rinsing with PBS, these cells were incubated in 0.2% Triton X-100 (in phosphate buffered saline (PBS)) for 10 min followed by 10% donkey serum (in PBS) at room temperature for 1 hour (h). The cells were then incubated with primary antibodies diluted in 5% donkey serum in 0.1% Triton X100 (in PBS) at 4° C. overnight, followed by fluorescently conjugated secondary antibodies at room temperature for 30 min. The nuclei were stained with Hoechst. Images were collected with a Nikon A1 laser-scanning confocal microscope. Flow cytometry was performed using Transcription Factor Buffer Set which is designed for transcription factor staining following manufacturer's instruction. Briefly, single cells were prepared using TrypLE Express Enzyme and fixed in the fixation buffer provided by the kit at 2-8° C. for 45 min. After 3 washings with the permeable buffer, primary antibodies were added to cells for 45 min at 2-8° C. in a light-tight box. Cells were washed three times before fluorescently conjugated secondary antibodies. Second antibodies were incubated with cells for 45 minutes at 2-8° C. in a light-tight box and followed by washing three times. After the last wash, cells were suspended in washing buffer and analyzed by flow cytometry (BD LSR or BD LSRII). Data analysis was performed using FlowJo. • ELISA: To detect NE release into medium during neuronal differentiation, supernatant was collected at indicated time points along differentiation. Enzyme-linked immunosorbent assay (ELISA) were performed using a Noradrenaline (Norepinephrine) ELISA Assay Kit (EAGLE, NOR31-K01) following the manufacturer's instructions. • Electrophysiology: Whole-cell patch-clamp recordings were made from human ESC-derived NE neurons at 4 weeks. Briefly, the NE neurons were held at −70 mV to record the Na+/K+ channel activities with voltage-clamp model. For recording action potentials, the cells were held at 0 pA with the current-clamp model, and with the steps of injected currents from −50 pA to +50 pA. The bath solution consisted of 135 mM NaCl, 3 mM KCl, 2 mM CaCl2), 1 mM MgCl2, 10 mM HEPES, 11 mM glucose, 10 mM sucrose, pH7.4. […]

[2] = test system: human ESC-derived NE neurons; assay: Whole-cell patch clamp recording of spontaneous action potential firing; assay type: cell-based; settings: 1 mM; reversed upon washing away
Method: gRNA was designed according to Benchling. Donor plasmid was generated by NEBuilder® HiFi DNA Assembly Master Mix (NEB, E2621S). Briefly, hPSCs were digested by TrypLE Express. Gene Pulser Xcell (Bio-Rad) was used for CRISPR/Cas9 delivery. Two-million cells were electroporated with 15 μg of sgRNA plasmid (pLenti-CRISPR) with 30 μg donor plasmid. Cells were plated at ˜150,000 cells/well of 6-well plate. Starting 24 hours after electroporation, 0.5 μg/ml puromycin were added to the culture medium. After 3 days of puromycin selection, hPSCs were switched to their normal culture medium and fed every other day until approximately 1-2 weeks after electroporation when distinct colonies were established. • Cell transplantation: Small aggregates of NE neural progenitors (day 10-day 12) were collected and suspended in artificial cerebral spinal fluid (aCSF) containing Rock inhibitor (0.5 μM), at a concentration of 100,000 cells/μl. 1 μl of cells were slowly injected into the left cortex (AP=+0.0 mm, ML=+1.8 mm, DV=−1.7 mm, from skull) of adult SCID mice (8-12 weeks) that were anesthetized with 1%-2% isoflurane mixed in oxygen. • Immunocytochemistry and flow cytometry: Immunocytochemistry was performed as described previously. […] After the last wash, cells were suspended in washing buffer and analyzed by flow cytometry (BD LSR or BD LSRII). […]

[3] = test system: hESC-derived NE neurons; assay: NE content in supernatant of NE neuron culture by ELISA; assay type: cell-based, human
Method: as §2, with “LSRII).” for “LSRII). Data analysis was performed using FlowJo. • ELISA: To detect NE release into medium during neuronal differentiation, supernatant was collected at indicated time points along differentiation. Enzyme-linked immunosorbent assay (ELISA) were performed using a Noradrenaline (Norepinephrine) ELISA Assay Kit (EAGLE, NOR31-K01) following the manufacturer's instructions. • Electrophysiology: Whole-cell patch-clamp recordings were made from human ESC-derived NE neurons at 4 weeks. Briefly, the NE neurons were held at −70 mV to record the Na+/K+ channel activities with voltage-clamp model. For recording action potentials, the cells were held at 0 pA with the current-clamp model, and with the steps of injected currents from −50 pA to +50 pA. The bath solution consisted of 135 mM NaCl, 3 mM KCl, 2 mM CaCl2), 1 mM MgCl2, 10 mM HEPES, 11 mM glucose, 10 mM sucrose, pH7.4.”

[4] = test system: GRABNE1m sensor-expressing NE neurons; assay: Fluorescence imaging of GRABNE1m sensor cells; assay type: cell-based, human; settings: for GRABNE1m sensor intensity (extracellular norepinephrine): norepinephrine reuptake inhibitor treatment
[5] = test system: human NE neuron progenitor cells; settings: in neural differentiation medium
Excerpt: as §1

Compound: Cc1c[nH]c(-c2cnc(NCCNc3ccc(C#N)cn3)nc2-c2ccc(Cl)cc2Cl)n1 [CHIR99021]
- cells expressing EN1 by immunocytochemistry ([1]; 1 μM, day 6): majority of the cells
- cells positive for OTX2 and HOXA2 by immunocytochemistry ([1]; 1 μM, day 6): few or no cells
- concentration above which EN1, EN2, PAX2 mRNA began to down-regulate and HOXA2, GBX2 increased ([1]; 6 days, mRNA level): above 0.6 μM
- concentration at which PHOX2B and PHOX2A reached their highest level ([1]; dose increment, 6 days): around 1 μM
- expression of midbrain transcription factor genes EN1, EN2, PAX2 ([1]; increasing concentrations over 6 days): upregulated
- expression of OTX2 at mRNA and protein levels ([1]; increasing concentrations over 6 days, RT-qPCR and flow cytometry): down-regulated

Compound: Clc1cccc(Cl)c1N=C1NCCN1 [Clonidine]
- sAP firing rate [2]: reduced the sAP firing rating significantly

Compound: CNCCCC12CCC(c3ccccc31)c1ccccc12 [Maprotiline]
- NE content in the supernatants [3]: increased the NE content
- GRABNE1m sensor intensity (extracellular norepinephrine) [4]: increase

Compound: CNCCC(Oc1ccccc1OC)c1ccccc1 (centres unmarked) [Nisoxetine]
- NE content in the supernatants [3]: increased the NE content
- GRABNE1m sensor intensity (extracellular norepinephrine) [4]: increase

Compound: NC[C@H](O)c1ccc(O)c(O)c1 [Norepinephrine]
- intensity of GRABNE1m sensor fluorescence ([4]; 1 μM): increased

Compound: CCOc1ccccc1OC(c1ccccc1)C1CNCCO1 (centres unmarked) [Reboxetine]
- NE content in the supernatants [3]: increased the NE content
- GRABNE1m sensor intensity (extracellular norepinephrine) [4]: increase

Compound: CNCC[C@@H](Oc1ccccc1C)c1ccccc1 [Tomoxetine]
- NE content in the supernatants [3]: increased the NE content
- GRABNE1m sensor intensity (extracellular norepinephrine) [4]: increase

Compound: Nc1ncnc2c1ncn2[C@@H]1O[C@@H]2COP(=O)(O)O[C@H]2[C@H]1O [cAMP]
- yield of human TH+/DBH+ NE neurons [5]: boost yield
